Assay results as given in patent US9063123B2, “Transgenic mice expressing human toll-like receptor 8” (Dynavax Technologies Corporation, priority 2011, dated 2015).

Key:
Assay type in all cases: cell-based
[1] = target: T1, human TLR8 expressed from the transgene in TLR8TGCL8 mice (Homo sapiens, UniProt Q9NR97); assay: Cytokine production by bone marrow cells from TLR8TGCL8 transgenic mice (ELISA); settings: 5×10^5 bone marrow cells from TLR8TGCL8 mice vs C57BL/6 WT, 100 or 50 μg/mL, 24 hours
T1 construct: the human BAC carrying TLR8 gene was obtained from the RPCIB-753 BAC library; expressed in transfected cells; host or cells: Blood cells, bone marrow cells and PBMC of hTLR8 transgenic mice, and the whole animals; The mice came from C57BL/6NTac ES cells transfected with the BAC: the Clone 8 germline line and chimeras
T1 sequence (Q9NR97 27-1041): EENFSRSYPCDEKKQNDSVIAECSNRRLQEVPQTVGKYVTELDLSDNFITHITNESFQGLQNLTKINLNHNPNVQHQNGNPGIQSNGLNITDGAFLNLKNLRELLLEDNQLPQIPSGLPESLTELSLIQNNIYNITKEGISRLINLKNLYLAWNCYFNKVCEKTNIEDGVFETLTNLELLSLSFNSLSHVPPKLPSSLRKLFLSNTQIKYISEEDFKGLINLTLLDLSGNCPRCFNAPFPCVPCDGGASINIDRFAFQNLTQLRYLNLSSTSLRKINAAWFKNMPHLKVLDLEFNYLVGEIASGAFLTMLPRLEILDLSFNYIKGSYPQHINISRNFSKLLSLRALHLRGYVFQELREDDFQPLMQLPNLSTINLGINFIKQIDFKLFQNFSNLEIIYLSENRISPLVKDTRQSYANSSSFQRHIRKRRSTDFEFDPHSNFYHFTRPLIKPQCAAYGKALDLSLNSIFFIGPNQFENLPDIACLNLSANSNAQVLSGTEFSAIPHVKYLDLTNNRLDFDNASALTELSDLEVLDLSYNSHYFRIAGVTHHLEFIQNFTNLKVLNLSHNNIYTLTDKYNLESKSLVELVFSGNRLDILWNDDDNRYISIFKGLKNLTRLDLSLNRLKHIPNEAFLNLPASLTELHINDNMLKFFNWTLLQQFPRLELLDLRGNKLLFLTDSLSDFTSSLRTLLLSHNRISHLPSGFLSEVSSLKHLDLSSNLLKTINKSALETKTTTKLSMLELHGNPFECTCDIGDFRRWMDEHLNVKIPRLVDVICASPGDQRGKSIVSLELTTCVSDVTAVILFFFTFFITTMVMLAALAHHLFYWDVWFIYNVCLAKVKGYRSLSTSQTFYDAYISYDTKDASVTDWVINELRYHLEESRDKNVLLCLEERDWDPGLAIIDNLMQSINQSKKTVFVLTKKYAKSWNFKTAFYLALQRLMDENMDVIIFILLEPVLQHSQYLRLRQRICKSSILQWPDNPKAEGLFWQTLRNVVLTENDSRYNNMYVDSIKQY
Excerpt: (§1) PN-based TLR8 ligand stabilized immunomodulatory RNA (5′-M2[…]-/glycerol/-[…]2-5′ (M2=C6-linker); SEQ ID NO:3) and PN-based TLR7 ligand stabilized immunomodulatory RNA (5′-[…]-/glycerol/-[…]-5′ (R=7-deazaguanosine); SEQ ID NO:2) were previously identified (Lan et al., PNAS 104:13750-13755, 2007). To confirm that human TLR8 expressed from the transgene in TLR8TGCL8 mice is functional and sensitive to stimulation, the effect of TLR8-stimulating RNA PN (SEQ ID NO:3) on cytokine production was assessed. 5×10^5 blood cells from TLR8TGCL8 transgenic mice or C57BL/6 WT animals were stimulated with TLR8 agonist at different concentrations as shown in FIG. 13. 24 hours later supernatants were harvested and assayed for mouse IL-12, TNF-α and IL-6 using standard ELISA procedures. In addition, 5×10^5 bone marrow cells from TLR8TGCL8 transgenic mice or C57BL/6 WT animals were stimulated with TLR8 agonist (SEQ ID NO:3) at different concentrations as shown in FIG. 14. Mouse TNF-α and IL-6 production was assayed in supernatants harvested after 24 hours.

[2] = target: T1, human TLR8 expressed from the transgene in TLR8TGCL8 mice; assay: Cytokine production by blood cells from TLR8TGCL8 transgenic mice (ELISA); settings: 5×10^5 blood cells from TLR8TGCL8 mice vs C57BL/6 WT, 200 or 100 μg/mL, 24 hours
Excerpt: as §1

[3] = system: Mouse PBMCs; assay: IL-12 and TNF-α production by mouse PBMCs (ELISA); settings: 5×10^5 cells from 129 wt and TLR7KO mice, 100 μg/ml
Protocol: (§2) The effect of TLR7 and TLR8-stimulating RNA PNs was further evaluated in mouse cells by measuring IL-12 and TNF-α production (FIG. 4). Mouse splenocytes and PBMCs were prepared from 129 wt mice and TLR7KO mice, and 5×10^5 cells were stimulated with 100 μg/ml of either TLR8 or TLR7 agonist as indicated in FIG. 4. IL-12 and TNF-α were measured by ELISA using standard techniques.

[4] = system: human peripheral blood mononuclear cells (PBMCs); assay: Cytokine production by human PBMCs stimulated with TLR7/TLR8 RNA PN (ELISA); settings: 5×10^5 human PBMCs, 20, 100 or 200 μg/mL, 24 hours
Protocol: (§3) PN-based TLR8 ligand stabilized immunomodulatory RNA (5′-M2[…]-/glycerol/-[…]2-5′ (M2=C6-linker); SEQ ID NO:3) and PN-based TLR7 ligand stabilized immunomodulatory RNA (5′-[…]-/glycerol/-[…]-5′ (R=7-deazaguanosine); SEQ ID NO:2) were previously identified (Lan et al., PNAS 104:13750-13755, 2007). The effect of these TLR7— and TLR8-stimulating RNA PN was evaluated by measuring production of IL-6 and TNF-α in human peripheral blood mononuclear cells (PBMCs) and human monocytes (FIG. 2). 5×10^5 PBMCs or 2×10^5 monocytes from healthy human donors were stimulated with 20 μg/mL, 100 μg/mL, or 200 μg/mL of either TLR8 agonist or TLR7 agonist as indicated in FIG. 2. Twenty-four hours later supernatants were assessed for presence of inflammatory cytokines IL-6 and TNF-α by standard ELISA procedure.

[5] = system: human pDCs; assay: Cytokine production by human pDCs stimulated with TLR7/TLR8 RNA PN (ELISA); settings: 1×10^5 human pDCs (negative for TLR8), 100 μg/mL, 24 hours
Protocol: The effect of TLR7 and TLR8-stimulating RNA PN were also evaluated in human pDCs by measuring production of IL-6, TNF-α, and IFN-α. […] 1×10^5 pDCs from healthy human donors were stimulated with 100 μg/mL of either TLR8 agonist or TLR7 agonist (Lan et al., PNAS 104:13750-13755, 2007) or medium alone as indicated in FIG. 3. Twenty-four hours later supernatants were assessed for presence of inflammatory cytokines IL-6, TNF-α and IFN-α by standard ELISA procedure.

[6] = system: Mouse splenocytes; assay: IL-12 and TNF-α production by mouse splenocytes (ELISA); settings: 5×10^5 cells from 129 wt and TLR7KO mice, 100 μg/ml
Protocol: as §2

[7] = system: human monocytes; assay: Cytokine production by human monocytes stimulated with TLR7/TLR8 RNA PN (ELISA); settings: 2×10^5 human monocytes, 20, 100 or 200 μg/mL, 24 hours, compared with PBMCs
Protocol: as §3

| Substance | mouse TNF-α and IL-6 production by bone marrow cells [1] | mouse IL-12, TNF-α and IL-6 production by blood cells [2] | stimulation of mouse PBMCs (IL-12 and TNF-α production) [3] | production of IL-6 and TNF-α in PBMCs [4] | stimulation of pDCs (IL-6, TNF-α and IFN-α production) [5] | stimulation of mouse splenocytes (IL-12 and TNF-α production) [6] | production of IL-6 and TNF-α in monocytes [7] |
| --- | --- | --- | --- | --- | --- | --- | --- |
| 5′-M2UGCUGCUUGUG-/glycerol/-GUGUUCGUCGUM2-5′ (M2=C6-linker) (NUGCUGCUUGUGNGUGUUCGUCGUN; listed as RNA, chemistry not fully specified) [TLR8 agonist, PN-based TLR8 ligand stabilized immunomodulatory RNA, previously identified (Lan et al., PNAS 2007)] | Only cells from transgenic animals responded | Only cells from transgenic animals responded | did not stimulate | stimulated production | did not stimulate | did not stimulate | to a lesser extent |
| 5′-URCURCUUCUR-/glycerol/-RUCUUCRUCRU-5′ (R=7-deazaguanosine) [TLR7 agonist] | – | – | – | stimulated production | – | – | to a lesser extent |
